Results: patent EP0099766A1, “1-3-Dihydro 4-(1-hydroxy-2-amino-ethyl)-2H-indol-2-one derivatives, their salts, process for their preparation, their use as medicines and compositions containing them” (ROUSSEL-UCLAF, priority 1982, dated 1984)

Legend:
souris = details: mouse, in vivo, po, 11520 min
Source text: On a évalué les doses létales DLO des différents composés testés après administration par voie orale chez la souris.
On appelle DLO la dose maximale ne provoquant aucune mortalité en 8 jours.

[1] = system: oédème plantaire provoqué par la carraghénine chez le rat; experiment: Anti-inflammatory activity: carrageenan-induced plantar oedema; assay type: in vivo; details: dose 0,4 mg/kg oral, given simultaneously with carrageenan; rat paw volume versus controls
Source text: L'activité anti-inflammatoire a été déterminée sur le test de l'oédème plantaire provoqué par la carraghénine chez le rat.
On administre, à des rats mâles pesant de 130 à 150 g, 0,05 cm3 d'une suspension stérile à 1% de carraghénine dans l'articulation tibio-tarsienne d'une patte postérieure.
Simultanément, on administre le produit à étudier dans une suspension de carboxyméthylcellulose à 0,25% et de Tween à 0,02% par voie orale.
Le volume de la patte est mesuré avant l'administration, puis 2 heures, 4 heures, 6 heures, 8 heures et 24 heures après.
L'intensité de l'inflammation est maxima 4 à 6 heures après l'injection de carraghénine. La différence du volume des pattes des animaux traités et des témoins met en évidence l'action anti inflammatoire du médicament.

[2] = system: rats mâles Sprague-Dawley; experiment: Anti-ulcer activity: Shay method modified by Guth (pylorus ligation plus aspirin/HCl gastric lesions); assay type: in vivo; details: dose 0,4 mg/kg per os one hour before pylorus ligation; aspirin 200 mg/kg per os; Sprague-Dawley rat; mean ulcer score
Method: L'essai est effectué selon la méthode de Shay modifiée par GUTH (GUTH, P.H. et coll, Topical aspirin plus HCl gastric lesions in the rat. Gastroenterology 1979,76, 88-93.) Des rats mâles Sprague-Dawley d'un poids voisin de 250 g, à jeun depuis 48 heures sauf boisson, ont été utilisés. On pratique sous légère anesthésie à l'halothane, la ligature du pylore et une . heure plus tard, on administre l'aspirine per os à la dose de 200 mg/kg, en suspension dans la carboxyméthylcellulose à 0,25% renfermant 15% d'acide chlorhydrique N. Deux heures plus tard, on sacrifie les animaux, prélève et examine les estomacs. Chaque lésion ulcéreuse est cotée de la façon suivante :
La somme des cotations est calculée pour chaque estomac, et le score moyen est établi.pour chaque lot.
Les substances à étudier sont administrées per os une heure avant la ligature.

`CNCC(O)c1cccc2c1CC(=O)N2` (stereo not shown) [compound 3, 1,3-dihydro 4-(1-hydroxy 2-(méthylamino)éthyl) 2H-indol-2-one] was tested, and the DL0 (souris) was > 400 mg/kg.
For `CCNCC(O)c1cccc2c1CC(=O)N2` (stereo not shown) [compound 7, Chlorhydratede 1,3-dugtdri 4-/(1-hydroxy 2-éthyl-amino) éthyl/ 2H-indol-2-one], the DL0 (souris) was > 400 mg/kg.
For `CC(C)NCC(O)c1cccc2c1CC(=O)N2` (stereo not shown) [exemple 1, 1,3-dihydro 4-/2-(1-méthyléthylamino) 1-hydroxy éthyl/ 2H-indol-2-one], the “protège les animaux traités (activité anti-inflammatoire)” value [1] was 61% and the DL0 (souris) was 200 mg/kg.
`CCCNCC(O)c1cccc2c1CC(=O)N2` (stereo not shown) [exemple 2, 1,3-dihydro 4-/1-hydroxy 2-(propylamino)éthyl/ 2H-indol-2-one] was tested, and the “protège les animaux traités (activité antiulcéreuse)” value [2] was 60% and the DL0 (souris) was 200 mg/kg.
`O=C1Cc2c(cccc2C(O)CNCC2CC2)N1` (stereo not shown) [exemple 5, Chlorhydratede 1,3-dihydro 4-/1-hydroxy 2-(cyclo-propylméthylamino) éthyl/ 2H-indol-2-one] gave a DL0 (souris) of 200 mg/kg.
